Source: publication PMC6256112, “Cannabinoid Receptor 2 Signalling Bias Elicited by 2,4,6-Trisubstituted 1,3,5-Triazines” (Frontiers in Pharmacology, 2018)
Values after ≈ are worked out from the molar mass of the structure shown. Marks after values point to notes of the source that are not given here.

Tests used:
[1] = target: T1, hCB1 (Homo sapiens, UniProt P21554); assay: Radioligand competition binding screen with [3H]-CP 55,940 on hCB1-expressing HEK membranes
T1 construct: expressed in transfected cells; host or cells: HEK (membranes)
T1 sequence (P21554 whole entry): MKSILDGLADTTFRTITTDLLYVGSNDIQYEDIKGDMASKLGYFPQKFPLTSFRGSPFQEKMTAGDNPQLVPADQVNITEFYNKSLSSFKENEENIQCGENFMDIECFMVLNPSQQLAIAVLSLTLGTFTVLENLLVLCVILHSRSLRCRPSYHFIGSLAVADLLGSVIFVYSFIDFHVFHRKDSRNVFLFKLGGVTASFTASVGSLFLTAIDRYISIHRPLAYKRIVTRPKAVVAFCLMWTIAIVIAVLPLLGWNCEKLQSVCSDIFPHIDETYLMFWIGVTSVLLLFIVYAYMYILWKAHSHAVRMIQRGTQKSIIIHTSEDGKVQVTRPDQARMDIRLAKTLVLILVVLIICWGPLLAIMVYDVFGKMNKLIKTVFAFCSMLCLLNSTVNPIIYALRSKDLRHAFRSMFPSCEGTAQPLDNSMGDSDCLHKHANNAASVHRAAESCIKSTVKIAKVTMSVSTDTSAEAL

[2] = tested on: HEK Flp-in wt cells; assay: CAMYEL cAMP assay in HEK Flp-in wt cells (non-hCB2-mediated effects); assay type: cell-based, human; settings: HEK Flp-in wt
[3] = target: T2, hCB2 (Homo sapiens, UniProt P34972); assay: Real-time CAMYEL BRET cAMP assay, forskolin-stimulated HEK Flp-in hCB2 cells; assay type: cell-based
T2 construct: expressed in transfected cells; host or cells: HEK Flp-in
T2 sequence (P34972 whole entry): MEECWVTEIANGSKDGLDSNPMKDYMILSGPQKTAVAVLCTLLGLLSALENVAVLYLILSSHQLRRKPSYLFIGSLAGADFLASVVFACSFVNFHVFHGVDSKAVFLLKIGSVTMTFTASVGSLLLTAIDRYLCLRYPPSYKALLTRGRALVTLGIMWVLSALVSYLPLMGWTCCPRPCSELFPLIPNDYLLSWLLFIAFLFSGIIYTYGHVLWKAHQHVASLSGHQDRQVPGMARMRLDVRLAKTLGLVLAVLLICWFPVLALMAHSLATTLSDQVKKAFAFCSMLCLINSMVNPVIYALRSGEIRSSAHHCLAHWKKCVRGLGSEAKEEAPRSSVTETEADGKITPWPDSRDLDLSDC
Procedure: Cellular cAMP levels were measured using a real-time BRET biosensor (CAMYEL) as previously described ([Cawston et al., 2013]). In brief, cells were seeded in 10 cm dishes one day prior to transfection. The medium was then replaced and cells transfected with 5 μg of pcDNA3L-His-CAMYEL (ATCC, Manassas, VA, United States) using linear PEI (MW 25 kDa; Polysciences, Warrington, PA, United States) with a DNA:PEI ratio of 1:6. Approximately 24 h after transfection, cells were trypsinised and re-plated in poly-D-lysine treated white 96-well plates (Corning), at a density of 5–6 × 10^4 cells per well. For experiments involving pertussis toxin (PTX; Sigma-Aldrich) pre-treatment, cells were seeded in half the usual volume of medium, and then ∼5 h later, 2× concentrated PTX or vehicle (50% glycerol, […] Tris–HCl pH 7.5, 10 mM glycine, 500 mM NaCl) were prepared in medium and added to the existing plating medium (giving rise to a final PTX concentration of 100 ng mL^-1). Approximately 24 h after plating (or 16–20 h after applying PTX/vehicle in experiments involving PTX treatment), cells were washed once with Hank’s Balanced Salt Solution (HBSS, Thermo Fisher Scientific, catalogue #14025-134), and then equilibrated for 30 min in HBSS supplemented with 1 mg mL^-1 BSA. Coelenterazine h (final concentration 5 μM; NanoLight Technologies, Pinetop, AZ, United States) was added to each well and incubated for 5 min. Forskolin was added (final concentration 5 μM) and incubated for 6 min (allowing enough time for the induced cAMP increase to plateau), prior to vehicle/drug addition. All drugs and reagents were prepared in HBSS supplemented with 1 mg mL^-1 BSA. SR 144528 was a generous gift from Roche (Basel, Switzerland).
Assays were carried out in technical duplicate. Emissions were detected at 460 nm (Rluc) and 535 nm (YFP) with either a LUMIstar® Omega luminometer (BMG Labtech, Ortenberg, Germany) or CLARIOstar® (BMG Labtech). BRET ratios (535 nm emissions/460 nm emissions, where an increase in ratio corresponds to a decrease in cAMP) were normalised to pre-forskolin reads (i.e., with coelenterazine h present) to remove any variability present prior to addition of forskolin and drug/vehicle. A Lowess curve (GraphPad Prism) was fitted to individual technical replicates within an assay so that cAMP signalling data could be extrapolated from any time point as opposed to only those that were empirically measured (typically every 30–60 s). Data were normalised to matched vehicle (0%) and forskolin (100%) treatments, allowing compilation of data from independent experiments.

[4] = target: T2, hCB2; assay: pERK AlphaLISA assay, HEK Flp-in hCB2 cells; assay type: cell-based
[5] = tested on: CB2; design: method as in Yrjölä et al., 2015; settings: ref Yrjölä et al., 2015; cited from earlier work
[6] = physchem; assay type: physicochemical; settings: organic solvent or mixture
Excerpt: The piperazine-containing 1,3,5-triazines 1 and 7, assembled following literature protocols (compound “26a” in [Yrjölä et al., 2013]; compound “8” in [Yrjölä et al., 2015], respectively), were alkylated with various alkyl bromide linkers containing a Boc-protected amine at the terminus to give 3, 4, 8, 9 and 10 (Schemes 1, 2). These were then Boc-deprotected using acidic conditions to give primary amines 5, 6, 11, 12, and 13. One example of an acetylated linker (14) was also synthesised. Thirteen compounds were biologically tested (Table 1); five compounds had been reported previously (1, 2, 7, 15, 16) ([Yrjölä et al., 2013], [2015]), and the remainder were novel (5, 6, 9–14). […] 7 was therefore assayed in a higher final DMSO content (1%) than the other compounds (0.1%). Both vehicle concentrations were controlled for in all assays (negative/vehicle and positive controls).

[7] = target: T2, hCB2; assay: Comparison of efficacy/potency and operational-model bias analysis between hCB2 pathways, reference CP 55,940; assay type: cell-based
[8] = target: T2, hCB2; assay: Radioligand competition binding with [3H]-CP 55,940 on hCB2-expressing HEK membranes
[9] = target: T2, hCB2; assay: hCB2 internalisation assay (immunocytochemistry of surface receptor), HEK Flp-in hCB2 cells; assay type: cell-based
[10] = operational model transduction ratio
[11] = 10^ΔΔlogR, relative to CP 55,940
[12] = relative to reference ligand CP 55,940

For `CCOc1nc(NC23CC4CC(CC(C4)C2)C3)nc(N2CCNCC2)n1` [Compound 7, N-(ad-amantan-1-yl)-4-ethoxy-6-(piperazin-1-yl)-1,3,5-triazi n-2-amine], the “CB1 binding extent at 10 μM (%) (±SEM)” value ([1]; 10 μM compound, displacement of 0.75 nM [3H]-CP 55,940) was 13.7 (4.1) %, the “CB2 selectivity over CB1 (in words)” value ([1]; from CB1 binding at 10 μM versus CB2 affinity) was “likely also CB2-selective” and the “Non-hCB2-mediated effects on cAMP (in words)” value [2] was “most pronounced effects”. The EC50 ([3]; 5 min post-drug, 5 μM forskolin, 10 and 14 approximate (non-hCB2-mediated effects), read-out: cAMP (5 min) pEC50 (±SEM) (converted)) was 85.1 nM, the “cAMP (5 min) Emax (±SEM)” value ([3]; 5 min post-drug, 5 μM forskolin, change relative to forskolin alone (100%), vehicle 0%, 10 and 14 approximate) was “–43.0 (3.0) %” and the “logR [log(τ/KA)] (±SEM) cAMP” value [3, 10] was 7.29 (0.26). For the same compound, the “Behaviour in pERK pathway (in words)” value ([4]; 4 min) was “weak partial agonists”, the EC50 ([4]; 4 min stimulation, 14 approximate (low potency), read-out: pERK (4 min) pEC50 (±SEM) (converted)) was 1820 nM and the “logR [log(τ/KA)] (±SEM) pERK” value [4, 10] was 5.51 (0.05). The “Time of maximal pERK response” value ([4]; time course experiment) was 4 min, the “GTPγS activity, % of maximum measured activity” value [5] was about 60% and the solubility [6] was 1000 µM (≈ 358 µg/mL). The “Internalisation – pERK Bias factor” value [7, 11] was 15.4, the “cAMP – internalisation Bias factor” value [7, 11] was 1.3 and the “cAMP – pERK Bias factor” value [7, 11] was 20.3. For the same compound, the “Between-pathway signalling bias (in words)” value ([7]; relative to CP 55,940) was “away from activation of pERK”, the “Internalisation – pERK ΔΔlogR (±SEM)” value [7, 12] was 1.19 (0.16)*** and the “cAMP – internalisation ΔΔlogR (±SEM)” value [7, 12] was 0.12 (0.31). The “cAMP – pERK ΔΔlogR (±SEM)” value [7, 12] was 1.31 (0.27)***, the inhibition at 10 µM ([8]; 1 h, 10 μM compound, displacement of 0.5 nM [3H]-CP 55,940, read-out: CB2 binding extent at 10 μM (%) (±SEM)) was 85.6% and the “Reduction in hCB2 affinity compared to 15” value ([8]; compared to methylpiperazinyl-15) was about 100 fold. The Ki ([8]; heterologous competition vs [3H]-CP 55,940, read-out: CB2 pKi (±SEM) (converted)) was 417 nM, the EC50 ([9]; 1 h stimulation) was 45.7 nM and the “logR [log(τ/KA)] (±SEM) Internalisation” value [9, 10] was 7.42 (0.26). For the same compound, the Emax at 10 µM ([9]; read-out: Internalisation (1 h) Emax (±SEM), 1 h stimulation, change in surface hCB2 relative to vehicle-treated (100%), for 13 efficacy at 10 μM) was -61.4%.
